Laboratory results reported in patent publication US8426370B2, “Diaryl hepatonoid-based compounds and use thereof” (priority 2008, dated 2013).
Where two headings read alike, the source gives them in different places.

Experiments:
[1] = test system: CEF (chicken embryo fibroblasts)
[2] = test system: avian influenza virus KBNP-0028 (KCTC 10866BP); type: cell-based, A/chicken/Korea/SNU0028/2000(H9N2)

For O=C(CCc1ccc(O)c(O)c1)C[C@H](CCc1ccc(O)c(O)c1)OC1OCC(O)C(O)C1OC(=O)/C=C/c1ccc(O)cc1 (stereo partly drawn) [12B-AJ-17A-1, (5S)-1,7-bis(3,4-dihydroxyphenyl)-3-heptanone-5-O-(2-coumaroyl)-β-D-xylopyranoside], the “cytotoxicity (in words)” value [1] was “no cytotoxicity”, the “antiviral activity (in words)” value [2] was “had antiviral activity” and the “Number of wells wherein hemagglutination occurs (among 6 wells)” value (from here on “Number”) ([2]; 12.5 μg/mL) was 3. The “Number” value ([2]; 25 μg/mL) was 3, the “Number” value ([2]; 50 μg/mL) was 3 and the “Number” value ([2]; 100 μg/mL) was 3.
